Source: article PMC8513526, “An Advanced Automated Patch Clamp Protocol Design to Investigate Drug—Ion Channel Binding Dynamics” (Frontiers in Pharmacology, 2021)
Like-named read-outs stand apart in the source and are kept apart here.

Columns and labels:
Format in all cases: cell-based
rNaV1.4 [1] = target: T1, rNaV1.4 (Rattus norvegicus, UniProt P15390); test: automated patch clamp (IonFlux Mercury), […]
T1 construct: gene Scn4a; recombinant rNaV1.4 channel stably expressed in HEK 293 cells

rNaV1.4 [2] = target: T1, rNaV1.4; test: automated patch clamp (IonFlux Mercury), […]; inhibition of pulse #[…] peak current at […]
rNaV1.4 [3] = target: T1, rNaV1.4; test: automated patch clamp (IonFlux Mercury ensemble recording; Port-a-Patch single-cell validation), […]
rNaV1.4 [4] = target: T1, rNaV1.4; test: as above; remark: listed apart in the source

T1 sequence (P15390 whole entry): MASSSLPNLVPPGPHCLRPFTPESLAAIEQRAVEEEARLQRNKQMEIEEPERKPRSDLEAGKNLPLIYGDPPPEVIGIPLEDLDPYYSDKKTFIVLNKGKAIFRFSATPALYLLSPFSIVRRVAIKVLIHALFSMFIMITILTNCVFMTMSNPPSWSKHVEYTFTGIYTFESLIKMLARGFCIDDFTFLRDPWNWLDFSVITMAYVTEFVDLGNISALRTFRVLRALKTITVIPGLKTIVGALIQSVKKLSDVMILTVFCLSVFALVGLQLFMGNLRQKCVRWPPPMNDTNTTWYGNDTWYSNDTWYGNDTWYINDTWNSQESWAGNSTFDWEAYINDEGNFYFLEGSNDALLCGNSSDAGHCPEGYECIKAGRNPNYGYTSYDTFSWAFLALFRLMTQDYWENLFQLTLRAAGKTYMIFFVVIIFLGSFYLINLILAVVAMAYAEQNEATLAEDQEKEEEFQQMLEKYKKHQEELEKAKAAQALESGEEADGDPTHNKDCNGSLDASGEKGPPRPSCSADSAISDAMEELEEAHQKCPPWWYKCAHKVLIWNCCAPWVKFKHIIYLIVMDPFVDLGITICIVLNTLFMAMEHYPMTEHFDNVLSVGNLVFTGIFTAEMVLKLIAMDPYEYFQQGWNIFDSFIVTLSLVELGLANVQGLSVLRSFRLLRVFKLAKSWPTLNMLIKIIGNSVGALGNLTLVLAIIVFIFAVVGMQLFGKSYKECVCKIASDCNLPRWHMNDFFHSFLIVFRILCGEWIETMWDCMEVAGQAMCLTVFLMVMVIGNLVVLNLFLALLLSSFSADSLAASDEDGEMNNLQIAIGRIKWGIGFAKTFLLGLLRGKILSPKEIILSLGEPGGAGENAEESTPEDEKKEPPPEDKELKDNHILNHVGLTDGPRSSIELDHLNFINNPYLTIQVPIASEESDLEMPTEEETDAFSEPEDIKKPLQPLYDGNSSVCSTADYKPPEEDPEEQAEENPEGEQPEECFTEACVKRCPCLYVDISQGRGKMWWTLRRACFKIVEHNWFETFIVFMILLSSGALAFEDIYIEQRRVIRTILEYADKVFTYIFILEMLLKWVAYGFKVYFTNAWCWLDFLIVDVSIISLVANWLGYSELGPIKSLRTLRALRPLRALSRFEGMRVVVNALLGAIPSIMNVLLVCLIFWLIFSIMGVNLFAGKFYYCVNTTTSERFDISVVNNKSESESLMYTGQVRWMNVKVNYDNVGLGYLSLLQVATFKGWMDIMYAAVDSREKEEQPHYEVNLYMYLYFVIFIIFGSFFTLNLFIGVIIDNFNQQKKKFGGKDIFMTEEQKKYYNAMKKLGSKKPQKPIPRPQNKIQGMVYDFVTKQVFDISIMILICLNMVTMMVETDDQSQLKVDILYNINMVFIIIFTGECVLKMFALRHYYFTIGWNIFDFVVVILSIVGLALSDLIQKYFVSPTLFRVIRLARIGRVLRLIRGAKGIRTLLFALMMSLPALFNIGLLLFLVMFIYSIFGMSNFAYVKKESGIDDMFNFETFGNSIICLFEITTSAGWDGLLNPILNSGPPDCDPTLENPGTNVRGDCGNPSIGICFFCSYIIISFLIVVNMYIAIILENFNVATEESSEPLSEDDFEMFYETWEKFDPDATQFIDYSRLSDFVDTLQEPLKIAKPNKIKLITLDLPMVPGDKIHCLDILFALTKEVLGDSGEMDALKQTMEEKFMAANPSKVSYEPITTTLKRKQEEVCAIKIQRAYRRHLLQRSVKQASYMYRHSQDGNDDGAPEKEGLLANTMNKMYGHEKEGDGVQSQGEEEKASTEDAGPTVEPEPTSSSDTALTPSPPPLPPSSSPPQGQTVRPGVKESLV

## CN(C)CCCN1c2ccccc2Sc2ccc(Cl)cc21 [chlorpromazine]
rNaV1.4 [1]
  automated patch clamp (IonFlux Mercury), 10 and 30 μM: inhibition by chlorpromazine was not much relieved throughout the whole 17-pulse sweep

## CN(C)CCCN1c2ccccc2CCc2ccccc21 [imipramine]
rNaV1.4 [2]
  inhibition at 30 µM: 50 to 55%

## CCN(CC)CC(=O)Nc1c(C)cccc1C [lidocaine]
rNaV1.4 [3]
  automated patch clamp (IonFlux Mercury ensemble recording); Port-a-Patch single-c: lidocaine caused a slowing of the fast time constant of recovery, which was moderate at lower concentrations

## Nc1nc2ccc(OC(F)(F)F)cc2s1 [riluzole]
rNaV1.4 [4]
  automated patch clamp (IonFlux Mercury ensemble recording); Port-a-Patch single-c: riluzole caused no change in either the contribution or the value of the slow time constant but caused a radical
